Literature values in patent US20050171374A1, “Preparation of levulinic acid esters from alpha-angelica lactone and olefins; use of ester compositions as fuel additives” (priority 2004, published 2005).
Structures can show the parent of a compound that is named as a salt.

Legend:
[1] = for Lower Heating Value [2]: reference [2] Walters, molar group contributions; for Lower Heating Value [1]: reference [1] DIPPR, cells marked [3] from DOE/EIA report
[2] = reference [1] DIPPR
[3] = reference [1] DIPPR; remark: listed apart in the source

## CCC(C)OC(=O)CCC(C)=O (stereo not shown) [Sec-Butyl Levulinate]
[1]
  Lower Heating Value [2]: 11748 Btu/lb

## COC(C)(C)C [MTBE, methyl tertiary-butyl ether, reference compound]
[2]
  Flash Point [1]: −28.15 °C
[3]
  Vapor Press. (100° F.) [1]: 55 KPa
[1]
  Lower Heating Value [1]: 15100[3] Btu/lb
  Lower Heating Value [2]: 16578 Btu/lb

## CC(=O)CCC(=O)OCCC(C)C [Isoamyl Levulinate]
[1]
  Lower Heating Value [2]: 13605 Btu/lb

## CCC(C)OC=O (stereo not shown) [Sec-Butyl Formate]
[2]
  Flash Point [1]: 0.85 °C
[3]
  Vapor Press. (100° F.) [1]: 12.1 KPa
[1]
  Lower Heating Value [2]: 10617 Btu/lb

## CC(C)(C)OC=O [Tert-Butyl Formate]
[2]
  Flash Point [1]: −9 °C
[3]
  Vapor Press. (100° F.) [1]: 19.8 KPa
[1]
  Lower Heating Value [1]: 11277 Btu/lb
  Lower Heating Value [2]: 12873 Btu/lb

## CO [Methanol, reference compound]
[2]
  Flash Point [1]: 10.85 °C
[3]
  Vapor Press. (100° F.) [1]: 32 KPa
[1]
  Lower Heating Value [1]: 8570 Btu/lb
  Lower Heating Value [2]: 8950 Btu/lb

## CCCOC(=O)CCC(C)=O [N-Propyl Levulinate]
[1]
  Lower Heating Value [2]: 13912 Btu/lb

## CCCOC=O [N-Propyl Formate]
[2]
  Flash Point [1]: −3.15 °C
[3]
  Vapor Press. (100° F.) [1]: 19.9 KPa
[1]
  Lower Heating Value [1]: 9964 Btu/lb
  Lower Heating Value [2]: 11792 Btu/lb

## CCCCCOC=O [Amyl Formate Ester]
[2]
  Flash Point [1]: 26.85 °C
[3]
  Vapor Press. (100° F.) [1]: 2.5 KPa
[1]
  Lower Heating Value [1]: 12274 Btu/lb
  Lower Heating Value [2]: 13905 Btu/lb

## CCOC=O [Ethyl Formate]
[2]
  Flash Point [1]: −20 °C
[3]
  Vapor Press. (100° F.) [1]: 55 KPa
[1]
  Lower Heating Value [1]: 8751 Btu/lb
  Lower Heating Value [2]: 10139 Btu/lb

## CC(C)OC=O [Isopropyl Formate]
[2]
  Flash Point [1]: −6 °C
[1]
  Lower Heating Value [2]: 12304 Btu/lb

## CCCCCOC(=O)CCC(C)=O [Amyl Levulinate]
[1]
  Lower Heating Value [2]: 14909 Btu/lb

## CCCCOC=O [N-Butyl Formate]
[2]
  Flash Point [1]: 18 °C
[3]
  Vapor Press. (100° F.) [1]: 7.4 KPa
[1]
  Lower Heating Value [1]: 11415 Btu/lb
  Lower Heating Value [2]: 15175 Btu/lb

## CCCCOC(=O)CCC(C)=O [N-Butyl Levulinate]
[1]
  Lower Heating Value [2]: 14451 Btu/lb

## COC=O [Methyl Formate]
[2]
  Flash Point [1]: −19.15 °C
[3]
  Vapor Press. (100° F.) [1]: 126.2 KPa
[1]
  Lower Heating Value [1]: 6393 Btu/lb
  Lower Heating Value [2]: 7711 Btu/lb

## COC(=O)CCC(C)=O [Methyl Levulinate]
[1]
  Lower Heating Value [2]: 10773 Btu/lb

## CC(=O)CCC(=O)OC(C)(C)C [Tert-Butyl Levulinate]
[1]
  Lower Heating Value [2]: 12010 Btu/lb

## CC(=O)CCC(=O)OC(C)C [Isopropyl Levulinate]
[1]
  Lower Heating Value [2]: 10969 Btu/lb

## CCO [Ethanol, reference compound]
[2]
  Flash Point [1]: 12.85 °C
[3]
  Vapor Press. (100° F.) [1]: 16 KPa
[1]
  Lower Heating Value [1]: 11500[3] Btu/lb
  Lower Heating Value [2]: 12477 Btu/lb

## CCOC(=O)CCC(C)=O [Ethyl Levulinate]
[1]
  Lower Heating Value [2]: 11722 Btu/lb

## CC(C)COC=O [Isobutyl Formate]
[2]
  Flash Point [1]: 3.85 °C
[3]
  Vapor Press. (100° F.) [1]: 10.2 KPa
[1]
  Lower Heating Value [1]: 11377 Btu/lb
  Lower Heating Value [2]: 12797 Btu/lb

## CC(=O)CCC(=O)OCC(C)C [Isobutyl Levulinate]
[1]
  Lower Heating Value [2]: 13041 Btu/lb
